Measurements from patent publication US20260078120A1, “SUBSTITUTED PYRIDOPYRIMIDINONES” (MIRATI THERAPEUTICS, INC., priority 2022, published 2026).
pIC50: −log10 of the molar value. Like-named read-outs stand apart in the source and are kept apart here.

How the values were obtained:
[1] = tested on: T47D (PI3Kα H1047R mutant) cells; assay: CellTiter-Glo 2.0 luminescent cell viability assay, 72 hours, T47D cells; type: cell-based; conditions: T47D (PI3Kα H1047R mutant) cells, CellTiter-Glo, approximately 72 hours, read-out: T47D (H1047R mutant) Viability IC50
In short: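 Cells seeded at 1000 per well overnight were dosed with a 10-concentration, 1:4 series starting at 10 µM and incubated ~72 h at 37° C. Viability was read by CellTiter-Glo 2.0 luminescence after 30 min at room temperature. IC50 came from four-parameter fits of percent vehicle control.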

[2] = tested on: SKBR3 (PI3Kα wild type) cells; assay: CellTiter-Glo 2.0 luminescent cell viability assay, 72 hours, SKBR3 cells; type: cell-based; conditions: SKBR3 (PI3Kα wild type) cells, CellTiter-Glo, approximately 72 hours, read-out: SKBR3 (WT) Viability IC50
In short: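 Viability measured via CTG luminescence following roughly 72 hours of compound exposure at 37° C. Dosing used a 10 um starting concentration diluted 1:4 over 10 points; percent-of-vehicle data fitted with a variable-slope four-parameter model for IC50.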

| pIC50 ([1]; Homo sapiens, T47D, 72 h) | pIC50 ([2]; Homo sapiens, SK-BR-3, 72 h) | pIC50 [1] | pIC50 [2] | Structure (SMILES) |
| --- | --- | --- | --- | --- |
| < 5.00 | < 5.00 | – | – | Cc1cc(C(C)NC(C)(C)CC(=O)O)c2nc(N3CCCCC3)cc(=O)n2c1 (stereo not shown) [Example 11-387, 3-methyl-3-((1-(7-methyl-4-oxo-2-(piperidin-1-yl)-4H-pyrido[1,2-a]pyrimidin-9-yl)ethyl)amino)butanoic acid] |
| 6.86 | < 5.00 | – | – | Cc1cc([C@@H](C)Nc2ccc(Cl)nc2C(=O)O)c2nc(N3CCC(F)(F)CC3)c(C)c(=O)n2c1 [Example 11-298, (R)-6-chloro-3-((1-(2-(4,4-difluoropiperidin-1-yl)-3,7-dimethyl-4-oxo-4H-pyrido[1,2-a]pyrimidin-9-yl)ethyl)amino)picolinic acid] |
| 6.16 | < 5.00 | – | – | Cc1cc([C@@H](C)Nc2ccccc2C(=O)O)c2nc(N3Cc4nccnc4C3)c(C#N)c(=O)n2c1 [Example 11-137, (R)-2-((1-(3-cyano-2-(5,7-dihydro-6H-pyrrolo[3,4-b]pyrazin-6-yl)-7-methyl-4-oxo-4H-pyrido[1,2-a]pyrimidin-9-yl)ethyl)amino)benzoic acid] |
| < 5.00 | < 5.00 | – | – | Cc1cc(C(C)Nc2ccncc2C(=O)O)c2nc(N3Cc4ccccc4C3)c(C)c(=O)n2c1 (stereo not shown) [Example 11-350, 4-((1-(2-(isoindolin-2-yl)-3,7-dimethyl-4-oxo-4H-pyrido[1,2-a]pyrimidin-9-yl)ethyl)amino)nicotinic acid] |
| 6.25 | < 5.00 | – | – | Cc1cc([C@@H](C)Nc2ccccc2C(=O)O)c2nc(N3CCc4scnc4C3)c(C#N)c(=O)n2c1 [Example 11-306, (R)-2-((1-(3-cyano-2-(6,7-dihydrothiazolo[4,5-c]pyridin-5(4H)-yl)-7-methyl-4-oxo-4H-pyrido[1,2-a]pyrimidin-9-yl)ethyl)amino)benzoic acid] |
| 6.59 | < 5.00 | – | – | Cc1cc([C@@H](C)Nc2ccccc2C(=O)O)c2nc(N3CCN(c4ccc(C(F)(F)F)cc4C#N)CC3C)c(C#N)c(=O)n2c1 (stereo partly drawn) [Example 11-78, 2-(((1R)-1-(3-cyano-2-(4-(2-cyano-4-(trifluoromethyl)phenyl)-2-methylpiperazin-1-yl)-7-methyl-4-oxo-4H-pyrido[1,2-a]pyrimidin-9-yl)ethyl)amino)benzoic acid] |
| 5.22 | < 5.00 | – | – | Cc1cc([C@@H](C)Nc2ccccc2C(=O)O)c2nc([C@H]3CCN(C)C(=O)C3)cc(=O)n2c1 [Example 11-376, 2-(((R)-1-(7-methyl-2-((S)-1-methyl-2-oxopiperidin-4-yl)-4-oxo-4H-pyrido[1,2-a]pyrimidin-9-yl)ethyl)amino)benzoic acid] |
| 6.71 | < 5.00 | – | – | Cc1cc([C@@H](C)Nc2ccccc2C(=O)O)c2nc(O[C@H]3CCOC3)c(C)c(=O)n2c1 [Example 11-246, 2-(((R)-1-(3,7-dimethyl-4-oxo-2-(((S)-tetrahydrofuran-3-yl)oxy)-4H-pyrido[1,2-a]pyrimidin-9-yl)ethyl)amino)benzoic acid] |
| 5.80 | < 5.00 | – | – | Cc1ccc(C#N)c(N2CCN(c3nc4c([C@@H](C)Nc5ccccc5C(=O)O)cc(C)cn4c(=O)c3C)[C@@H](C)C2)c1 [Example 11-75, 2-(((R)-1-(2-((S)-4-(2-cyano-5-methylphenyl)-2-methylpiperazin-1-yl)-3,7-dimethyl-4-oxo-4H-pyrido[1,2-a]pyrimidin-9-yl)ethyl)amino)benzoic acid] |
| 6.64 | < 5.00 | – | – | Cc1cc([C@@H](C)Nc2ccccc2C(=O)O)c2nc(N3CCN(c4ccc(C#N)cc4)[C@H](C)C3)c(C#N)c(=O)n2c1 [Example 11-270, 2-(((R)-1-(3-cyano-2-((R)-4-(4-cyanophenyl)-3-methylpiperazin-1-yl)-7-methyl-4-oxo-4H-pyrido[1,2-a]pyrimidin-9-yl)ethyl)amino)benzoic acid] |
| 5.92 | < 5.00 | – | – | Cc1cc([C@@H](C)Nc2ccccc2C(=O)O)c2nc(NC[C@H]3CCOC3)c(C#N)c(=O)n2c1 [Example 11-193, 2-(((R)-1-(3-cyano-7-methyl-4-oxo-2-((((R)-tetrahydrofuran-3-yl)methyl)amino)-4H-pyrido[1,2-a]pyrimidin-9-yl)ethyl)amino)benzoic acid] |
| 6.09 | < 5.00 | – | – | Cc1cc([C@@H](C)Nc2ccccc2C(=O)O)c2nc(N3CCN(c4c(C)cccc4C)CC3)c(C)c(=O)n2c1 [Example 11-37, (R)-2-((1-(2-(4-(2,6-dimethylphenyl)piperazin-1-yl)-3,7-dimethyl-4-oxo-4H-pyrido[1,2-a]pyrimidin-9-yl)ethyl)amino)benzoic acid] |
| 7.19 | < 5.00 | – | – | Cc1cc([C@@H](C)Nc2ccccc2C(=O)O)c2nc(N3CC4CC3CC4C)c(C)c(=O)n2c1 (stereo partly drawn) [Example 10-136, 2-(((1R)-1-(3,7-dimethyl-2-(5-methyl-2-azabicyclo[2.2.1]heptan-2-yl)-4-oxo-4H-pyrido[1,2-a]pyrimidin-9-yl)ethyl)amino)benzoic acid] |
| – | – | 6.82 | < 5.00 | Cc1cc([C@@H](C)Nc2ccccc2C(=O)O)c2nc(N3Cc4cc(F)c(F)cc4C3)c(C)c(=O)n2c1 [Example 11-188, (R)-2-((1-(2-(5,6-difluoroisoindolin-2-yl)-3,7-dimethyl-4-oxo-4H-pyrido[1,2-a]pyrimidin-9-yl)ethyl)amino)benzoic acid] |
| 6.56 | 5.06 | – | – | Cc1cc(C(C)Nc2ccc(Cl)nc2C(=O)O)c2nc(N3Cc4ccccc4C3)c(C)c(=O)n2c1 (stereo not shown) [Example 11-361] |
| 5.78 | < 5.00 | – | – | Cc1cc([C@@H](C)Nc2ccc(F)c(F)c2C(=O)O)c2nc(N3CCC(F)(F)CC3)c(C#N)c(=O)n2c1 [Example 11-88, (R)-6-((1-(3-cyano-2-(4,4-difluoropiperidin-1-yl)-7-methyl-4-oxo-4H-pyrido[1,2-a]pyrimidin-9-yl)ethyl)amino)-2,3-difluorobenzoic acid] |
| 6.50 | < 5.00 | – | – | Cc1cc([C@@H](C)Nc2ccccc2C(=O)O)c2nc(N3CCC(C4CCC4)CC3)c(C)c(=O)n2c1 [Example 11-20, (R)-2-((1-(2-(4-cyclobutylpiperidin-1-yl)-3,7-dimethyl-4-oxo-4H-pyrido[1,2-a]pyrimidin-9-yl)ethyl)amino)benzoic acid] |
| < 5.00 | < 5.00 | – | – | Cc1cc([C@@H](C)Nc2ccccc2C(=O)O)c2nc(N[C@H](C)c3cccnc3)c(C#N)c(=O)n2c1 [Example 11-51, 2-(((R)-1-(3-cyano-7-methyl-4-oxo-2-(((R)-1-(pyridin-3-yl)ethyl)amino)-4H-pyrido[1,2-a]pyrimidin-9-yl)ethyl)amino)benzoic acid] |
| 5.26 | < 5.00 | – | – | CC(=O)N1CCC(c2cc(=O)n3cc(C)cc(C(C)Nc4ccccc4C(=O)O)c3n2)CC1 (stereo not shown) [Example 11-381, 2-((1-(2-(1-acetylpiperidin-4-yl)-7-methyl-4-oxo-4H-pyrido[1,2-a]pyrimidin-9-yl)ethyl)amino)benzoic acid] |
| 6.57 | < 5.00 | – | – | Cc1cc([C@@H](C)Nc2ccccc2C(=O)O)c2nc(N3CCC(C(F)(F)F)CC3)c(C#N)c(=O)n2c1 [Example 11-70, (R)-2-((1-(3-cyano-7-methyl-4-oxo-2-(4-(trifluoromethyl)piperidin-1-yl)-4H-pyrido[1,2-a]pyrimidin-9-yl)ethyl)amino)benzoic acid] |
| 5.86 | < 5.00 | – | – | Cc1cc(C(C)Nc2ccccc2C(=O)O)c2nc(N3Cc4ccccc4C3=O)c(C)c(=O)n2c1 (stereo not shown) [Example 11-362, 2-((1-(3,7-dimethyl-4-oxo-2-(1-oxoisoindolin-2-yl)-4H-pyrido[1,2-a]pyrimidin-9-yl)ethyl)amino)benzoic acid] |
| 6.10 | < 5.00 | – | – | Cc1ccc2c(c1)CN(c1nc3c([C@@H](C)Nc4ccccc4C(=O)O)cc(C)cn3c(=O)c1C)C2 [Example 11-17, (R)-2-((1-(3,7-dimethyl-2-(5-methylisoindolin-2-yl)-4-oxo-4H-pyrido[1,2-a]pyrimidin-9-yl)ethyl)amino)benzoic acid] |
| 6.57 | < 5.00 | – | – | Cc1cc([C@@H](C)Nc2ccc(Cl)nc2C(=O)O)c2nc(N3Cc4nccnc4C3)c(C)c(=O)n2c1 [Example 11-139, (R)-6-chloro-3-((1-(2-(5,7-dihydro-6H-pyrrolo[3,4-b]pyrazin-6-yl)-3,7-dimethyl-4-oxo-4H-pyrido[1,2-a]pyrimidin-9-yl)ethyl)amino)picolinic acid] |
| 6.77 | < 5.00 | – | – | CO[C@@H]1CN(c2nc3c([C@@H](C)Nc4ccccc4C(=O)O)cc(C)cn3c(=O)c2C)CCC1(F)F [Example 11-58, 2-(((R)-1-(2-((R)-4,4-difluoro-3-methoxypiperidin-1-yl)-3,7-dimethyl-4-oxo-4H-pyrido[1,2-a]pyrimidin-9-yl)ethyl)amino)benzoic acid] |
| 6.62 | < 5.00 | – | – | Cc1cc([C@@H](C)Nc2ccccc2C(=O)O)c2nc(N3CCN(c4cccc(C(F)(F)F)c4)CC3)c(C)c(=O)n2c1 [Example 11-439, (R)-2-((1-(3,7-dimethyl-4-oxo-2-(4-(3-(trifluoromethyl)phenyl)piperazin-1-yl)-4H-pyrido[1,2-a]pyrimidin-9-yl)ethyl)amino)benzoic acid] |

| Structure (SMILES) | pIC50 ([1]; Homo sapiens, T47D, 72 h) | pIC50 ([2]; Homo sapiens, SK-BR-3, 72 h) | pIC50 [1] | pIC50 [2] |
| --- | --- | --- | --- | --- |
| Cc1cc([C@@H](C)Nc2ccccc2C(=O)O)c2nc(N3CC4CC(C3)N4c3ccc(C#N)cc3)c(C#N)c(=O)n2c1 [Example 11-134, 2-(((1R)-1-(3-cyano-2-(6-(4-cyanophenyl)-3,6-diazabicyclo[3.1.1]heptan-3-yl)-7-methyl-4-oxo-4H-pyrido[1,2-a]pyrimidin-9-yl)ethyl)amino)benzoic acid] | 6.22 | < 5.00 | – | – |
